Assay results: patent US20250034216A1, “STEREOSELECTIVE COVALENT LIGANDS FOR ONCOGENIC AND IMMUNOLOGICAL PROTEINS” (The Scripps Research Institute, priority 2021, published 2025)

Experiments:
DDX39A_C86 = test: IA-DTB cysteine engagement; format: binding, human; settings: 22Rv1 cells, 20 μM probe, 1 h, relative to DMSO
Procedure: Sample preparation: Cells (adherent: 15 cm dishes, suspension: 2 million cells/mL) were treated with electrophilic probes in situ for indicated times and concentrations, washed with ice-cold PBS, and flash frozen in liquid nitrogen. Cell pellets were lysed by sonication (8 pulses, 40% power) in 500 μL ice-cold PBS supplemented with cOmplete protease inhibitors (1 tablet/10 mL of PBS). Whole cell lysates protein content was measured using a standard DC protein assay (Bio-Rad) and 500 μL (2 mg/mL protein content) were treated with 5 μL of 10 mM 1A-DTB (in DMSO) for 1 h at ambient temperature with occasional vortexing. Samples were methanol-chloroform precipitated with the addition of 500 μL ice-cold MeOH and 200 μL CHCl3, vortexed, and centrifuged (10 min, 10,000 g). Without disrupting the protein disk, both top and bottom layers were aspirated and the protein disk was washed with 1 mL ice-cold MeOH and centrifuged (10 min, 10,000 g). The pellets were allowed to air dry, and then re-suspended in 90 μL buffer (9 M urea, 10 mM DTT, 50 mM TEAB pH 8.5). Samples were reduced by heating at 65 C for 20 minutes and water bath sonicated as needed to resuspend the protein pellets, followed by alkylation via addition of 10 μL (500 mM) iodoacetamide and incubated at 37 C for 30 min with shaking. Samples were briefly centrifuged, and probe sonicated once more to ensure complete resuspension, and then diluted with 300 μL buffer (50 mM TEAB pH 8.5) to reach final concentration of 2 M urea. Trypsin (4 μL of 0.25 μg/μL in trypsin resuspension buffer with 25 mM CaCl2)) was added to each sample and digested at 37 C for 2 h to overnight. Digested samples were then diluted with 300 μL wash buffer (50 mM TEAB pH 8.5, 150 mM NaCl, 0.2% NP-40) containing streptavidin-agarose beads (50 μL of 50% slurry in wash buffer) and were rotated at room temperature for 2 hours. Enriched samples were pelleted by centrifugation (2000 g, 2 min) and transferred to BioSpin columns and washed (3×1 mL wash buffer, 3×1 mL PBS, 3×1 mL water). Enriched peptides were eluted by 300 μL 50% acetonitrile with 0.1% formic acid and eluate was evaporated to dryness via speedvac. IA-DTB labeled and enriched peptides were resuspended in 100 μL EPPS buffer (200 mM, pH 8.0) with 30% acetonitrile, vortexed, and water bath sonicated. Samples were TMT labeled with 3 μL of corresponding TMT tag (5 mg tag resuspended in 256 μL acetonitrile), vortexed, and incubated at room temperature for 1 hour. […]
Data processing: Cysteine engagement ratios (probe vs DMSO) were calculated for each peptide-spectra match by dividing each TMT reporter ion intensity by the average intensity for the channels corresponding to DMSO treatment. […]

[1] = biological target: PSME1 and PSME2 (PA28 complex) (Homo sapiens, UniProt Q06323); test: SEC-MS elution profile; format: cell-based; parameters: endogenous in cells; host or cells: 22Rv1; settings: 22Rv1 cells, 20 μM, 3 h
Procedure: Sample preparation: Cells (adherent: 15 cm dishes, suspension: 2 million cells/mL) were treated with electrophilic probes in situ for indicated times and concentrations (elaborated fragments: 20 μM, 3 h), washed with ice-cold PBS, and flash frozen in liquid nitrogen. Cell pellets were lysed by sonication (8 pulses, 40% power) in 600 μL ice-cold PBS supplemented with cOmplete protease inhibitors (1 tablet/10 mL of PBS), ultracentrifuged for 20 min at 100,000 g, then normalized to a standardized concentration (typically 1.5 to 2.5 mg/mL). Clarified lysate was injected into a Superdex 200 Increase 10/300 GL column attached to an AKTA pure FPLC system. Proteins were fractionated using an isocratic gradient (PBS) running at 0.5 mL/min into 5 fractions 2 mL wide, beginning at 8 mL and ending at 18 mL. Eluate was collected into 15 mL tubes containing 12 mL of acetone at 4C. After completion of one set of 5 fractions, the above protocol was repeated a second time for the remaining 5 fractions. Proteins were precipitated overnight at −20 C, then spun at 4500 g for 20 minutes, yielding a white protein pellet. Acetone/PBS mixture was decanted off the pellets, which were dried at room temperature and then resuspended in 125 μL of 8 M urea, 10 mM DTT in 100 mM EPPS for 15 minutes at 65 degrees, followed by probe sonication to complete resuspension. 6.25 μL of 500 mM iodoacetamide was added to samples for alkylation (30 minutes, 37 C), followed by dilution with 370 μL of 100 mM EPPS, and addition of 2 μg trypsin per fraction, and digestion overnight at 37 C. 70 μL of tryptic digest was aliquoted into a clean microcentrifuge tube, followed by 30 μL of dry acetonitrile and 4.5 μL (5 mg/256 μL) of TMT tag in dry acetonitrile. Samples were labeled at room temperature for 75 minutes, then quenched with 6 μL of 5% hydroxylamine for 15 minutes and acidified with 5 μL of formic acid. The set of 10 samples were then combined into a single tube and evaporated by speed vac. Samples were then desalted and fractionated before analysis by mass spectrometry.
Data processing: Fractional distributions for each peptide-spectra match with a total TMT reporter ion intensity were calculated by dividing the reporter ion intensity for each TMT channel by the summed intensity across the 5 TMT channels corresponding to a single treatment condition (Equation 1). Protein-level SEC elution profiles were then generated by averaging together all unique peptides with a summed reporter ion intensity >5,000. Two unique peptide sequences were required per-protein. Bar graph elution profiles are represented as the mean±standard error of the mean across all replicates. Euclidean distances (SE shift scores, Equation 2) were calculated using the average elution profile for each protein across replicates, combined by treatment condition and cell line. Figures reporting mean elution times used Equation 3 for calculation.
Filtering of SEC-MS data: Replicates were combined based on cell line and treatment condition (probe, concentration, duration) by averaging SEC elution profiles for each protein across all experiments. A coefficient of variation (CV) filter was applied by taking the average the per-fraction CV across all 5 fractions. Proteins with a CV≥0.7 were removed from analysis.

Sequence of PSME1 and PSME2 (PA28 complex) (Q06323 whole entry, the tested form may be a part, one chain of several): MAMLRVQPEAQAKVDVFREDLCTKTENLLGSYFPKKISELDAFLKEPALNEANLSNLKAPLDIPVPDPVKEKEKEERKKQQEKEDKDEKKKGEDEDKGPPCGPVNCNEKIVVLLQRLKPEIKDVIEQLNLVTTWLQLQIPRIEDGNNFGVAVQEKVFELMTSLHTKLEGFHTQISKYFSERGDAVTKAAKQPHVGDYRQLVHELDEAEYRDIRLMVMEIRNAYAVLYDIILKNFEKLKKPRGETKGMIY

SMILES	% engagement DDX39A_C86 (DDX39A_C86) [%]	SEC migration shift of PSME1 and PSME2 [1]
C=CC(=O)N1C[C@H](c2ccc(Br)cc2)[C@H]1C(=O)Nc1cccc2cccnc12 [MY-3B, (2S,3S)-1-acryloyl-3-(4-bromophenyl)-N-(quinolin-8-yl)azetidine-2-carboxamide]	67.5	None of the other azetidine acrylamide stereoisomers
C=CC(=O)N1C[C@H](c2ccc(Br)cc2)[C@@H]1C(=O)Nc1cccc2cccnc12 [MY-1B, (2R,3S)-1-acryloyl-3-(4-bromophenyl)-N-(quinolin-8-yl)azetidine-2-carboxamide]	37	decreased size shift
CC#CC(=O)N1C[C@H](c2ccc(Br)cc2)[C@@H]1C(=O)Nc1cccc2cccnc12 [MY-45B, (2R,3S)-3-(4-bromophenyl)-1-(but-2-ynoyl)-N-(quinolin-8-yl)azetidine-2-carboxamide]		caused the expected SEC migration shifts
C=CC(=O)N1C[C@H](c2ccc(Br)cc2)[C@H]1C(=O)Nc1cccc2cccnc12 [MY-3A, (2S,3S)-1-acryloyl-3-(4-bromophenyl)-N-(quinolin-8-yl)azetidine-2-carboxamide]	23.5	None of the other azetidine acrylamide stereoisomers
C=CC(=O)N1C[C@@H](c2ccc(Br)cc2)[C@H]1C(=O)Nc1cccc2cccnc12 [MY-1A, (2S,3R)-1-acryloyl-3-(4-bromophenyl)-N-(quinolin-8-yl)azetidine-2-carboxamide]	44.5	None of the other azetidine acrylamide stereoisomers
